What was measured:
[1] = tested on: arterially perfused rabbit left ventricular wedge preparation; assay: Arterially perfused rabbit left ventricular wedge preparation (QT, Tp-e, EAD, TdP); conditions: 2000 ms BCL; for Tp-e: control 52.2 ± 3.7; for QT: control 288.2 ± 11.1; for EAD: events per preparations
Text: The compounds were checked for their effect on the QT interval, the Tp-e interval (Yan and Antzelevitch, Circulation 1998; 98:1928-1936; Yan et al, Circulation 2001; 103:2851-2856) that approximates closely to transmural dispersion of repolarization (TDR), the Tp-e/QT ratio that reflects the potential of phase 2 early afterdepolarization (EAD) development in sub- and/or endocardium (Joshi et al, Journal of Electrocardiology, 2004, 34 (suppl): 7-14) and the phenomena dependent on phase 2 EAD (i.e. R on T extrasystole and TdP) in the isolated arterially-perfused rabbit ventricular wedge preparation.
Female rabbits weighting 2.5-3 kg were anticoagulated with heparin and anesthetized with pentobarbital (30-35 mg/kg, i.v.). The chest was opened via left thoracotomy, and the heart was excised and placed in a cardioplegic solution consisting of cold (4° C.) normal Tyrode s solution (in mmol/l: NaCl 129, KCl 4.0, CaCl2 1.8, NaH2PO4 0.9, MgSO4 0.5, NaHCO3 20, glucose 5.5). A transmural wedge, approximately 1.5 cm wide and 2-3 cm long, was dissected from the left ventricle and rapidly cannulated via the left anterior descending artery or the circumflex artery and perfused with cardioplegic solution for <4 min. The preparation was then transferred to a tissue bath (100 ml) and perfused with warm (35.7±0.1° C.) Tyrode's solution containing 4 mM K^+ buffered ? with 95% O2 and 5% CO2. Perfusion pressure was set at 40-50 mmHg by using a peristaltic pump. The preparation was paced at a basic cycle length of 1000 ms and allowed to equilibrate for approximately 1 h, the time necessary to achieve electrical stability. Electrical pacing was delivered via bipolar silver electrodes insulated except at the tips and applied to the endocardial surface.
After the preparation equilibrated for one hour, the experiment was initiated. During the infusion of the compounds, the preparation was stimulated from the endocardium at basic cycle lengths of 1000 ms from the beginning of the infusion to the 20th minute and then at 2000 ms from the 20th minute to the 30th minute. At the end of each pacing cycle length, the ECG signal was sampled for 1 to 2 min at a sampling rate of 1562 Hz (Spike 2 software, CED, England)
A transmural ECG signal was recorded in all experiments. The QT interval was defined as the time from the onset of the QRS to the point at which the final downslope of the T wave across isoelectric line. The QT interval values were derived from the mean values of four consecutive beats. (Yan and Antzelevitch, Circulation 1998; Yan et al, Circulation 2001; 103:2851-2856; and Antzelevitch, Journal of Electrocardiology 2004; 37(Suppl): 15-24).

[2] = tested on: isolated guinea pig right ventricular papillary muscle; assay: Ex-vivo organ study: functional refractory period in isolated guinea pig right ventricular papillary muscle; conditions: conc 10^−5 mol/l
Text: (§1) The compounds were checked for their effect on the force of contraction, stimulation threshold and for the Functional Refractory Period (FRP) in isolated rat left atria (Rat LA). Rat left atria functionally express the Kv4.3 ion channel, producing the Ito current of the action potential. […] The guinea pig action potential is dominated by hERG like ion channels for the refractory currents. Consequently, activity of hERG channels in vivo should be seen in GP pap muscle preparations.
Method: Rat LA (Same Method Applies to GP pap. Muscle)
Left atria were mounted vertically in a two-chambered organ bath containing 100 ml of buffer solution (in mM: NaH2PO4 0.6, MgSO4 0.6, KCl 4.7, NaHCO3 25, glucose 4.5, NaCl-120, CaCl2 2.4). The solution was saturated with and circulated by a gas mixture containing 95% O2 and 5% CO2. The temperature was kept constant at 30° C. […] The isometric force of the preparations was measured by force transducers, connected to amplifiers, documented by a pen recorder and fed into a computer for evaluation. Force of contraction (FC), threshold stimulus (TS) and the functional refractory period (FRP) were measured at baseline (pre), 20 min after addition of compound, and after washout at the end of the experiment. Threshold stimulus, representing excitability of the tissue, was assessed by varying the voltage applied for electrical stimulation. […]

isolated rat left atria = assay: Ex-vivo organ study: functional refractory period in isolated rat left atria; conditions: conc 10^−5 mol/l
Text: as §1
Left atria were mounted vertically in a two-chambered organ bath containing 100 ml of buffer solution (in mM: NaH2PO4 0.6, MgSO4 0.6, KCl 4.7, NaHCO3 25, glucose 4.5, NaCl-120, CaCl2 2.4). […] The isometric force of the preparations was measured by force transducers, connected to amplifiers, documented by a pen recorder and fed into a computer for evaluation. Force of contraction (FC), threshold stimulus (TS) and the functional refractory period (FRP) were measured at baseline (pre), 20 min after addition of compound, and after washout at the end of the experiment. Threshold stimulus, representing excitability of the tissue, was assessed by varying the voltage applied for electrical stimulation. […] The functional refractory period, representing the time needed for repolarization, was assessed by applying extra stimuli at varying time intervals from the preceding regular pacing stimulus. […]

COc1ccccc1Nc1nc(C)c(C(=O)N[C@H]2CCC[C@@H]2OCc2ccccc2)s1 [Compound 68, 2-(2-methoxy-phenylamino)-4-methyl-thiazole-5-carboxylic acid (1S,2S)-2-(benzyloxycyclopent-1-yl) amide] was tested, and the “TdP Score” value ([1]; 1 μmol/l) was 0.0 ± 0.0, the “Tp-e” value ([1]; 1 μmol/l) was 52.0 ± 3.9 ms and the “QT” value ([1]; 1 μmol/l) was 287.6 ± 11.4 ms. The EAD ([1]; 1 μmol/l) was 0/5, the “TdP Score” value ([1]; 3 μmol/l) was 0.0 ± 0.0 and the “Tp-e” value ([1]; 3 μmol/l) was 51.4 ± 4.0 ms. For the same compound, the “QT” value ([1]; 3 μmol/l) was 286.6 ± 12.0 ms, the EAD ([1]; 3 μmol/l) was 0/5 and the “dFRP Guinea Pig” value [2] was 0 ms. The “dFRP Rat” value (isolated rat left atria) was 13 ms.

Reference: patent US20080125432A1 (Devgen NV, priority 2004, published 2008)
